Assay results: US4495104A, “Quinone carboxylic acids and ester derivatives” (Takeda Chemical Industries, Ltd., priority 1980, dated 1985)

Tests used:
SRS-A production = assay: Inhibition of SRS-A production and release in sensitized guinea-pig lung fragments (egg albumin antigen); type: cell-based, quinea-pig; settings: lung fragments sensitized with egg albumin, compound dissolved in ethanol or dimethyl sulfoxide, read-out: Inhibitory effect on SRS-A production (%); for inhibition at 10 µM: concentration 10 μM
Method: Further, we investigated the effect of the present compound (I) on the production and release of the slow reacting substance of anaphylaxis (hereinafter, SRS-A) which has been mentioned as a main factor in asthma. Thus, in accordance with the method of Orange and Moore (J. Immunol., 116, 392-397, 1976), the present compound (I) was added to a quinea-pig lung fragments sensitized with egg albumin as the antigen, and the amount of SRS-A produced and released as a consequence was assayed by the method of Brocklehurst (J. Physiol., 151, 416-435, 1960).
^(1) The compound was added as dissolved in ethanol or dimethyl
^(2) The inhibitory effect on SRSA production was expressed as the %
inhibition of production and release of SRSA.

succinate oxidase = assay: Mitochondrial electron-transport activity determined as succinate oxidase activity in ubiquinone-depleted enzyme preparations; type: biochemical; settings: level of addition 10 n moles; ubiquinone-depleted enzyme preparation; control 19.34 ± 1.42
Method: ^(1) Ubiquinonedepleted enzyme preparations were prepared in
accordance with Lester and Fleischer (Biochem. Biophys. Acta., 47,358-377
1961). The electrontransport activity was determined based on succinate

Which inhibition at 10 µM (SRS-A production) does the source give for `COC1=C(OC)C(=O)C(CCCCCCCCCCCCCCCCCC(=O)O)=C(C)C1=O` [R:H, n:17, 6-(17-carboxyheptadecyl)-2,3-dimethoxy-5-methyl-1,4-benzoquinone] here?
Its inhibition at 10 µM is 82.8 ± 4.4%.

What about the “Succinate oxidase activity [oxygen consumption per mg enzyme protein during 1 minute (n atoms oxygen)]” value (succinate oxidase) of the same molecule?
The value was 112.05 n atoms oxygen.

With `COC1=C(OC)C(=O)C(CCCCCCCCCCCCC(=O)O)=C(C)C1=O` [R:H, n:12, 6-(12-carboxydodecyl)-2,3-dimethoxy-5-methyl-1,4-benzoquinone] as the molecule, how does the inhibition at 1 µM (SRS-A production; concentration 1 μM) read?
The inhibition at 1 µM was 60 ± 3.3%.

What about the inhibition at 10 µM (SRS-A production) of the same molecule?
The inhibition at 10 µM was 87.2 ± 5.5%.

What about the “Succinate oxidase activity [oxygen consumption per mg enzyme protein during 1 minute (n atoms oxygen)]” value (succinate oxidase) of the same molecule?
The value was 96.05 n atoms oxygen.

For `COC(=O)CCCCCCCCCCCCC1=C(C)C(=O)C(OC)=C(OC)C1=O` [n:12 R:CH3, 2,3-dimethoxy-6-(12-methoxycarbonyldodecyl)-5-methyl-1,4-benzoquinone], which “Succinate oxidase activity [oxygen consumption per mg enzyme protein during 1 minute (n atoms oxygen)]” value (succinate oxidase) is on record?
The value was 146.10 n atoms oxygen.

How did the inhibition at 10 µM (SRS-A production) turn out when `COC1=C(OC)C(=O)C(CCCCCCCCCCCCCCCCCCCCCC(=O)O)=C(C)C1=O` [R:H, n:21, 6-(21-carboxyheneicosyl)-2,3-dimethoxy-5-methyl-1,4-benzoquinone] was run?
Its inhibition at 10 µM is 80.5 ± 0.5%.
